Measurements from the supplement of paper PMC6045584.
± gives the standard deviation of the averaged measurements.

Legend:
AZD4547 = compound: COc1cc(CCc2cc(NC(=O)c3ccc(N4CC(C)NC(C)C4)cc3)n[nH]2)cc(OC)c1 [AZD4547]; assay: surviving fraction relative to DMSO-only wells; higher = less growth inhibition; details: exposure time: 5 days
Method in brief: (§1)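 Log-phase tumour cell lines, 250–500 cells per well in 384-well plates, received inhibitors at 0.5, 1, 5, 10, 50, 100, 500 and 1000 nM continuously for five days, starting 24 hours after seeding. Viability was quantified with CellTiter-Glo luminescence and normalised to the median of DMSO-only wells to give surviving fraction. Three screens were run per line, and a line stayed in only with replicate Pearson r >0.7 and median Z' >0.3.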

MK2206 = compound: NC1(c2ccc(-c3nc4ccn5c(=O)[nH]nc5c4cc3-c3ccccc3)cc2)CCC1 [MK2206]; assay: as above; details: exposure time: 5 days
Method in brief: as §1

Test System | surviving fraction (AZD4547; 0.5 nM) | surviving fraction (AZD4547; 1 nM) | surviving fraction (AZD4547; 5 nM) | surviving fraction (AZD4547; 10 nM) | surviving fraction (AZD4547; 50 nM) | surviving fraction (AZD4547; 100 nM) | surviving fraction (AZD4547; 500 nM) | surviving fraction (AZD4547; 1000 nM) | surviving fraction (MK2206; 0.5 nM) | surviving fraction (MK2206; 1 nM) | surviving fraction (MK2206; 5 nM) | surviving fraction (MK2206; 10 nM) | surviving fraction (MK2206; 50 nM) | surviving fraction (MK2206; 100 nM) | surviving fraction (MK2206; 500 nM) | surviving fraction (MK2206; 1000 nM)
HCC1806 BREAST | 1.04 ± 0.14 | 1.08 ± 0.048 | 1.12 ± 0.063 | 1.14 ± 0.06 | 1.16 ± 0.11 | 1.13 ± 0.05 | 0.996 ± 0.078 | 1 ± 0.17 | 1.02 ± 0.074 | 1.1 ± 0.021 | 1.15 ± 0.19 | 1.14 ± 0.05 | 1.05 ± 0.072 | 1.02 ± 0.099 | 0.828 ± 0.013 | 0.682 ± 0.015
HCC1954 BREAST | 0.677 ± 0.04 | 0.711 ± 0.052 | 0.84 ± 0.087 | 1.01 ± 0.12 | 0.956 ± 0.023 | 0.887 ± 0.069 | 1.0088 ± 0.00035 | 1 ± 0.1 | 1.06 ± 0.16 | 0.988 ± 0.088 | 1.14 ± 0.14 | 1.18 ± 0.13 | 0.896 ± 0.035 | 0.9938 ± 0.0039 | 0.482 ± 0.082 | 0.304 ± 0.0067
HCT15 LARGE INTESTINE | 1.03 ± 0.026 | 1.07 ± 0.029 | 1.03 ± 0.042 | 1.07 ± 0.048 | 1.03 ± 0.042 | 1.08 ± 0.033 | 1.1 ± 0.044 | 1.1 ± 0.041 | 1.04 ± 0.042 | 1.07 ± 0.048 | 1.08 ± 0.052 | 1.07 ± 0.064 | 1.02 ± 0.063 | 1.07 ± 0.025 | 0.942 ± 0.073 | 0.928 ± 0.026
HELA CERVIX | 1.04 ± 0.023 | 1.09 ± 0.035 | 1.07 ± 0.036 | 1.1 ± 0.032 | 1.08 ± 0.013 | 1.07 ± 0.03 | 1.08 ± 0.092 | 1.11 ± 0.13 | 1.03 ± 0.037 | 1.15 ± 0.043 | 1.12 ± 0.073 | 1.09 ± 0.12 | 1.02 ± 0.057 | 1.09 ± 0.035 | 1.08 ± 0.031 | 1.19 ± 0.051
HMLE3 BREAST | 0.986 ± 0.082 | 0.959 ± 0.04 | 0.882 ± 0.05 | 0.79 ± 0.025 | 0.57 ± 0.046 | 0.455 ± 0.053 | 0.418 ± 0.064 | 0.379 ± 0.032 | 1.06 ± 0.11 | 1.13 ± 0.047 | 1.08 ± 0.01 | 1.09 ± 0.044 | 0.895 ± 0.14 | 0.843 ± 0.098 | 0.717 ± 0.052 | 0.617 ± 0.018
HMT3552 BREAST | 1.06 | 1.09 | 1.01 | 0.895 | 1.03 | 1.04 | 0.852 | 0.888 | 1.05 ± 0.029 | 1.05 ± 0.02 | 1.1 ± 0.03 | 1.02 ± 0.033 | 1.03 ± 0.041 | 0.909 ± 0.076 | 0.692 ± 0.02 | 0.62 ± 0.014
HOS BONE | 1 ± 0.027 | 1.04 ± 0.011 | 1.04 ± 0.037 | 1.1 ± 0.042 | 1 ± 0.019 | 0.987 ± 0.021 | 0.9247 ± 0.0092 | 0.802 ± 0.039 | 1.02 ± 0.013 | 1.03 ± 0.026 | 1.03 ± 0.0087 | 1.05 ± 0.038 | 0.978 ± 0.021 | 0.948 ± 0.021 | 0.822 ± 0.038 | 0.79 ± 0.012
HOSMNG BONE | 1.01 ± 0.088 | 0.996 ± 0.12 | 1.02 ± 0.1 | 1.03 ± 0.035 | 0.964 ± 0.12 | 0.9967 ± 0.0029 | 0.945 ± 0.087 | 1.04 ± 0.097 | 0.865 ± 0.1 | 0.936 ± 0.1 | 0.907 ± 0.082 | 0.846 ± 0.1 | 0.773 ± 0.076 | 0.802 ± 0.15 | 0.752 ± 0.064 | 0.678 ± 0.027
HS57T BREAST | 1.02 ± 0.051 | 1.01 ± 0.031 | 0.938 ± 0.04 | 0.829 ± 0.05 | 0.687 ± 0.029 | 0.744 ± 0.043 | 0.679 ± 0.035 | 0.628 ± 0.045 | 0.979 ± 0.037 | 1 ± 0.07 | 1.02 ± 0.051 | 1.07 ± 0.056 | 0.962 ± 0.013 | 0.938 ± 0.05 | 0.747 ± 0.012 | 0.658 ± 0.092
HS578T BREAST | 0.986 ± 0.061 | 1.05 ± 0.06 | 1.04 ± 0.025 | 1.01 ± 0.04 | 0.966 ± 0.056 | 0.94 ± 0.036 | 0.871 ± 0.03 | 0.911 ± 0.039 | 1.06 ± 0.17 | 1 ± 0.084 | 1.02 ± 0.087 | 1.04 ± 0.15 | 1.03 ± 0.19 | 0.829 ± 0.08 | 0.652 ± 0.064 | 0.618 ± 0.028
HSSYII SYNOVIAL | 0.872 ± 0.069 | 0.813 ± 0.031 | 0.606 ± 0.04 | 0.434 ± 0.0065 | 0.295 ± 0.015 | 0.302 ± 0.0015 | 0.259 ± 0.0075 | 0.24 ± 0.013 | 0.937 ± 0.019 | 0.9935 ± 0.0096 | 0.93 ± 0.042 | 0.984 ± 0.043 | 0.903 ± 0.059 | 0.921 ± 0.037 | 0.773 ± 0.024 | 0.738 ± 0.032
HT1080 SOFT TISSUE | 1.04 ± 0.048 | 1.03 ± 0.025 | 1.01 ± 0.031 | 1 ± 0.0068 | 0.979 ± 0.016 | 0.9753 ± 0.0087 | 0.936 ± 0.03 | 0.817 ± 0.065 | 1.04 ± 0.028 | 1.02 ± 0.018 | 1.04 ± 0.018 | 1.06 ± 0.043 | 1.05 ± 0.026 | 1.05 ± 0.012 | 0.997 ± 0.049 | 0.951 ± 0.044
HU09 BONE | 0.983 ± 0.077 | 0.982 ± 0.16 | 1.03 ± 0.089 | 1.07 ± 0.061 | 0.797 ± 0.066 | 0.856 ± 0.026 | 0.624 ± 0.062 | 0.419 ± 0.031 | 0.85 ± 0.065 | 0.971 ± 0.0053 | 0.991 ± 0.18 | 1.06 ± 0.094 | 0.849 ± 0.039 | 0.63 ± 0.05 | 0.363 ± 0.034 | 0.272 ± 0.016
JIMT1 BREAST | 0.99 ± 0.016 | 1.03 ± 0.04 | 1.018 ± 0.0059 | 1.02 ± 0.0097 | 1.032 ± 0.0075 | 1.07 ± 0.032 | 1.05 ± 0.02 | 1.06 ± 0.03 | 0.965 ± 0.025 | 0.996 ± 0.017 | 0.999 ± 0.049 | 1.02 ± 0.01 | 0.929 ± 0.012 | 0.917 ± 0.027 | 0.68 ± 0.023 | 0.633 ± 0.034
JURKAT HAEMATOPOIETIC AND LYMPHOID TISSUE | 1 ± 0.027 | 1.06 ± 0.036 | 1.01 ± 0.026 | 1.04 ± 0.021 | 0.967 ± 0.034 | 0.951 ± 0.033 | 1.04 ± 0.018 | 1 ± 0.035 | 1 ± 0.013 | 1.03 ± 0.03 | 0.92 ± 0.016 | 0.987 ± 0.022 | 0.871 ± 0.0053 | 0.787 ± 0.025 | 0.471 ± 0.01 | 0.274 ± 0.0046
KPD BONE | 0.961 ± 0.049 | 0.945 ± 0.078 | 0.991 ± 0.094 | 0.984 ± 0.024 | 1 ± 0.067 | 0.956 ± 0.088 | 0.804 ± 0.039 | 0.642 ± 0.036 | 1 ± 0.043 | 0.979 ± 0.031 | 0.944 ± 0.075 | 0.931 ± 0.047 | 0.634 ± 0.013 | 0.467 ± 0.024 | 0.252 ± 0.0083 | 0.195 ± 0.0091
LM7 BONE | 0.914 ± 0.098 | 0.959 ± 0.086 | 1.07 ± 0.044 | 0.982 ± 0.048 | 0.939 ± 0.064 | 0.985 ± 0.12 | 0.762 ± 0.034 | 0.571 ± 0.086 | 0.991 ± 0.019 | 0.998 ± 0.043 | 1.04 ± 0.046 | 1.03 ± 0.055 | 0.84 ± 0.069 | 0.818 ± 0.056 | 0.628 ± 0.041 | 0.579 ± 0.016
MCF7 BREAST | 0.925 ± 0.062 | 0.918 ± 0.038 | 0.948 ± 0.074 | 0.931 ± 0.036 | 1 ± 0.069 | 0.9181 ± 0.0017 | 0.921 ± 0.066 | 0.924 ± 0.063 | 0.947 ± 0.046 | 0.942 ± 0.052 | 0.933 ± 0.044 | 0.916 ± 0.034 | 0.882 ± 0.065 | 0.841 ± 0.078 | 0.659 ± 0.033 | 0.62 ± 0.042
MDAMB134 BREAST | 1.04 ± 0.28 | 1.04 ± 0.088 | 1.01 ± 0.083 | 0.922 ± 0.078 | 0.973 ± 0.14 | 0.899 ± 0.089 | 1.04 ± 0.028 | 1.05 ± 0.17 | 1 ± 0.079 | 0.89 ± 0.29 | 0.921 ± 0.0014 | 0.891 ± 0.14 | 0.703 ± 0.016 | 0.783 ± 0.072 | 0.629 ± 0.13 | 0.673 ± 0.18
MDAMB157 BREAST | 0.981 ± 0.036 | 0.967 ± 0.12 | 0.932 ± 0.069 | 0.768 ± 0.035 | 0.642 ± 0.13 | 0.537 ± 0.048 | 0.562 ± 0.1 | 0.374 ± 0.039 | 0.952 ± 0.052 | 0.999 ± 0.02 | 1.06 ± 0.026 | 0.963 ± 0.081 | 0.96 ± 0.053 | 0.949 ± 0.019 | 0.947 ± 0.048 | 0.904 ± 0.1
MDAMB231 BREAST | 0.973 ± 0.018 | 1.02 ± 0.025 | 1.009 ± 0.0064 | 1.02 ± 0.033 | 1.02 ± 0.019 | 1.06 ± 0.032 | 1.06 ± 0.035 | 1.06 ± 0.028 | 0.954 ± 0.019 | 1.006 ± 0.0089 | 0.976 ± 0.021 | 0.972 ± 0.024 | 0.903 ± 0.027 | 0.934 ± 0.033 | 0.869 ± 0.027 | 0.856 ± 0.011
